The text below walks through data of article PMC10891539, “Plant Extracts and Phytochemicals from the Asteraceae Family with Antiviral Properties” (Molecules, 2024).

Where two headings read alike, the source gives them in different places.

One series concerns DENV-2. Briefly: Antiviral activity, virus yield inhibition assay (plaque assay) against DENV-2 in Vero cells. It is filed as cell-based, dengue virus (DENV-2 strain NGC). To be noted: for activity against DENV-2 (in words): DENV-2 in Vero cells. As for the experimental part:
Figure 3 Antiviral activity of dichloromethane (A) and methanolic extracts (B) and against DENV-2 in Vero cells. Cells were infected with DENV-2 (m.o.i. 0.1 PFU/cell) and, after 1 h adsorption at 37 °C, were treated with medium containing different dilutions of the dichloromethane extracts or vehicle. After 48h of infection, viral yield was determined via plaque assay. […] Results are expressed as the mean values ± standard deviation (SD).
Figure 4 Antiviral activity of pure compounds against DENV-2 in Vero cells. Cells were infected with DENV-2 (m.o.i. 0.1 PFU/cell) and, after 1 h adsorption at 37 °C, were treated with medium containing different dilutions of the pure compounds or vehicle (dimethyl sulfoxide). After 48 h of infection, viral yield was determined via plaque assay. Results are expressed as the mean values ± standard deviation (SD).
(§1) Vero (African green monkey kidney, ATCC CCL-81) cells were grown in Eagle’s minimum essential medium (MEM, Gibco™ Thermo Fisher Scientific, Waltham, MA, USA) supplemented with 5% heat-inactivated newborn bovine serum (NBS, Gibco™ Thermo Fisher Scientific, Carlsbad, CA, USA) and 1.5 g/L of sodium bicarbonate in a 5% CO2 atmosphere. For the maintenance medium (MM), the serum concentration was reduced to 1.5%. The C6/36 HT mosquito cell line from Aedes albopictus (ATCC CRL-1660), adapted to grow at 33 °C, was cultured in L-15 Medium (Leibovitz) supplemented with 0.3% tryptose phosphate broth, 0.02% glutamine, 1% MEM non-essential amino acids solution, and 5% FBS. The original stock of DENV-2 strain NGC was prepared in C6/36 cells and titrated via plaque formation in Vero cells.
Antiviral activity was evaluated with a virus yield inhibition assay. Cells grown in 24-well microplates were infected with DENV-2 at a multiplicity of infection (m.o.i.) of 0.1 PFU/cell, and after 1 h adsorption at 37 °C, the unadsorbed virus was removed by washing with PBS and refed with MM containing different two-fold dilutions of each compound or vehicle (DMSO or methanol). […] The concentration of the solvent used for the control was the maximum present in the highest concentration of the extract or compound evaluated. After 48 h of infection, supernatants were collected and cooled down, and serial dilutions were prepared to infect Vero cell monolayers to measure virus yield via the PFU method. After viral adsorption for 1 h at 37 °C, the virus excess was removed; MM supplemented with 0.7% methylcellulose was added and cells were incubated for 1 week at 37 °C in a 5% CO2 incubator. Finally, cell monolayers were fixed with 10% formaldehyde, washed, and stained with a 1% solution of crystal violet, and PFU were counted. Inhibition values (% respect to viral control): The effective concentration 50% (EC50), as the concentration required to reduce virus yield by 50% in the compound-treated cultures, was calculated via non-linear regression using GraphPad Prism (v9.0) software, compared with viral control treated with vehicle (DMSO or methanol), and presented as the mean ± SD obtained from three independent experiments.

The nature of series [1]: Cytotoxicity assay (MTT) on Vero cells. To be noted: African green monkey. It is filed as cell-based. As for the experimental part: as §1
Confluent cell monolayers in 96-well plates were exposed for 48 h to serial two-fold compound dilutions, four wells for each concentration, and then viability was tested. The concentration range evaluated for extracts was 1–250 µg/mL, and for pure compounds, it was 1–200 µM or 1–100 µM depending on the phytochemical. […] Cell cultures treated with 0.01% concentration of vehicle (DMSO or methanol) were taken as cell control. Cell viability determinations were performed by the 3-(4,5-dimethylthiazol-2-yl)-2,5-diphenyl tetrazolium bromide (MTT, Sigma-Aldrich, St. Louis, MO, USA) method, adding 10 µL of MM containing MTT reagent (final concentration 0.5 mg/mL) to each well. After 2 h of incubation at 37 °C, the supernatants were removed, 100 µL of ethanol was added per well to solubilize the formazan crystals, and absorbance was measured at 595 nm. Viability values (% respect to cell control): The cytotoxic concentration 50% (CC50) was calculated via non-linear regression using GraphPad Prism (v9.0.) software as the compound concentration required to reduce the MTT signal by 50% compared to cell controls treated with vehicle (DMSO or methanol), and it is presented as the mean ± standard deviation (SD) obtained from three independent experiments.

The next series relates to human cancer cell lines. Also noted: method as in PMID 32805622. To be noted: cited from earlier work.
[2] abbreviates: Dengue virus, DENV2, Vero, 48 h, pure phytochemicals, concentration reducing DENV-2 yield by 50%, Vero cells, m.o.i. 0.1, 48 h, mean of three ± SD.
The mark [3] stands for this setting: Vero cells (confluent monolayers), pure phytochemicals, Vero cells, 48 h, MTT, mean of three determinations ± SD, read-out: CC50.
Where [4] appears, read: pure phytochemicals, concentration reducing DENV-2 yield by 50%, Vero cells, m.o.i. 0.1, 48 h, mean of three ± SD.
The mark [5] stands for this setting: pure phytochemicals, Vero cells, 48 h, MTT, mean of three determinations ± SD, read-out: CC50.

The EC50 is the concentration giving half of the maximal effect. One may read the CC50 as the concentration giving 50% cytotoxicity. In the series with DENV-2 (setting [2]), `C=C1C(=O)O[C@@H]2/C=C(\CO)CC/C=C(\COC(C)=O)C[C@H](OC(C)=O)[C@@H]12` [Compound 4, minimolide] gave an EC50 of over 2 µM. In series [1] (setting [3]), the CC50 at 48 h was determined as 10.6 ± 0.55 µM.

Compound `C=C1C(=O)O[C@@H]2[C@H]3C(C)=CC[C@H]3C(=C)C[C@@H](OC(=O)/C(=C/CO)CO)[C@@H]12` [Compound 3, eupahakonenin B] returned an EC50 in the series with DENV-2 (setting [2]) of over 2 µM. For the same compound, the CC50 at 48 h in series [1] (setting [3]) is 11.2 ± 0.36 µM.

`COc1ccc(-c2cc(=O)c3c(O)c(OC)c(OC)cc3o2)cc1OC` [Compound 14, 5-demethylsinensetin] displayed an EC50 with DENV-2 (setting [2]) of over 2 µM. Besides, in series [1] (setting [3]), the CC50 at 48 h was found to be 184 ± 27.8 µM.

With `C=C1CC[C@H]2C(=C)C(=O)O[C@@H]2[C@H]2C(C)=CC(=O)[C@@H]12` [Compound 6, 2-oxo-8-deoxyligustrin], the EC50 in the series with DENV-2 (setting [2]) was determined as 3.7 µM; with DENV-2 (setting [4]), 3.72 ± 0.28 µM. The CC50 at 48 h in series [1] (setting [3]) came out at 21.8 ± 4.15 µM.

As for `C=C(C)c1cc2cc(C(C)=O)c(O)cc2o1` [Compound 8, euparin], the EC50 was found to be 6.8 µM with DENV-2 (setting [2]) and 6.81 ± 0.2 µM in the series on DENV-2 (setting [4]). Further, in series [1] (setting [5]), the CC50 at 48 h is over 500 µM.

Regarding macrocephalide B, the “50% cell growth inhibitions” value in the series with human cancer cell lines was 6.37 µM.

`C=C1C(=O)O[C@@H]2/C=C(\C)CC/C=C(\C)C[C@@H](OC(=O)/C(=C/CO)CO)[C@@H]12` [Compound 2, eupatoriopicrin]: the EC50 in the series with DENV-2 (Dengue virus, DENV2, pure phytochemicals, concentration reducing DENV-2 yield by 50%, Vero cells, m.o.i. 0.1, 48 h, mean of three ± SD, read-out: EC50) is over 2 µM. Besides, the CC50 in series [1] (setting [5]) was determined as 10.8 ± 0.88 µM.

In the series on DENV-2 (setting [2]), `O=C1C[C@@H](c2ccc(O)c(O)c2)Oc2cc(O)cc(O)c21` [Compound 12, eryodictiol] showed an EC50 of over 2 µM. Also, the CC50 at 48 h in series [1] (setting [3]) was over 100 µM.

As to `COc1c(O)cc2oc(-c3ccc(O)c(O)c3)cc(=O)c2c1O` [Compound 10, nepetin], the “activity against DENV-2 (in words)” value in the series with DENV-2 is “inactive”. Also, in the series on DENV-2 (setting [2]), the EC50 is over 2 µM. In addition, the CC50 at 48 h in series [1] was over 100 µM.

On to `COc1cc(-c2cc(=O)c3c(O)c(OC)c(O)cc3o2)ccc1O` [Compound 11, jaceosidin], for which the “activity against DENV-2 (in words)” value in the series on DENV-2 was “inactive”. For the same compound, the EC50 with DENV-2 (setting [2]) is over 2 µM. Also, in series [1] (setting [3]), the CC50 at 48 h was over 100 µM.

In the case of `COc1ccc(-c2cc(=O)c3c(O)c(OC)c(OC)cc3o2)cc1O` [Compound 13, eupatorin], the concentration giving a half-maximal response (EC50) in the series on DENV-2 (setting [2]) was over 2 µM. Further, in series [1] (setting [5]), the CC50 was over 200 µM.

Take `C=C1C(=O)O[C@H]2C[C@]3(C)O[C@@H]3[C@@H]3O[C@@H]3C3=C[C@@H](OC3=O)[C@H]12` [Compound 1, mikanolide]: the EC50 in the series on DENV-2 (Dengue virus, DENV2, Vero, 48 h) is over 2 µM. In series [1], this compound displayed a CC50 of 6.69 ± 0.49 µM.

Turning to `C=C1C(=O)O[C@@H]2/C=C(\C)[C@@H](O)C/C=C(\C)C[C@@H](OC(=O)/C(=C/CO)COC(C)=O)[C@@H]12` [Compound 7, santhemoidin C], the EC50 in the series with DENV-2 (setting [2]) came out at 3.1 µM; in the series with DENV-2 (setting [4]), 3.12 ± 1.39 µM. Moreover, in series [1] (setting [3]), the CC50 at 48 h was 21 ± 3.65 µM.

As to `C=C1C(=O)OC2C1CCC(=C)C1CC3OC3(C)C12` (centres unmarked) [Compound 5, estafietin], in the series with DENV-2 (setting [2]), the EC50 is over 2 µM. Moreover, the CC50 at 48 h in series [1] (setting [3]) came to 23.5 ± 0.99 µM.

Consider `COc1cc(-c2oc3cc(O)c(OC)c(O)c3c(=O)c2OC)ccc1O` [Compound 9, jaceidin], for which, in the series on DENV-2 (setting [2]), the EC50 is over 2 µM. The CC50 at 48 h in series [1] (setting [3]) was over 100 µM.

On to macrocephalide A, for which the “50% cell growth inhibitions” value in the series on human cancer cell lines was 0.576 µM.
